Assay results: patent US8937055B2, “Heterocyclic ring compound having muscle cell or adipocyte differentiation regulating action” (Takeda Pharmaceutical Company Limited, priority 2010, dated 2015)

Experiments:
[1] = system: Mouse-derived myoblast line C2C12 cell; assay: Cell differentiation promoting activity in myoblast (creatine kinase activity); assay type: cell-based; settings: 48 h, 1 μM compound, 2 days in differentiation medium, CK activity without compound = 100%, read-out: creatinine kinase activating action (%)
Method: • (1) Mouse-derived myoblast line C2C12 cell (Dainippon Pharmaceutical Co., Ltd.) was subcultured in a high glucose Eagle's modified Dulbecco's medium (GIBCO) containing 10% calf fetal bovine serum (GIBCO), 100 unit/mL penicillin and 100 μg/mL streptomycin (hereinafter to be referred to as a growth medium), plated at 5000 cells/cm^2 and cultured at 37° C., under 5% CO2. • (2) When the cells reached subconfluence, the medium was exchanged with a high glucose Eagle's modified Dulbecco's medium (GIBCO) containing 2% horse serum (GIBCO) and penicillin, streptomycin and a test compound (hereinafter to be referred to as a differentiation medium), and the cells were cultured for 2 days. To the control group was added DMSO solution instead of the test compound. • (3) The cells were washed with PBS, 0.5% NP-40 solution was added thereto, and the cells were lysed by freeze-thawing. The cell extract was centrifuged, and the creatine kinase activity in the supernatant was measured as an index of muscle differentiation. The creatine kinase activity was measured using CPKII Test Wako (Wako Pure Chemical Industries, Ltd.) according to the manual of the kit. The tests using the compounds of Example 7 to Example 14 were corrected based on the total protein amount measured using CA Protein Assay Kit (Thermo Scientific).
The numerical values in Table 3 show CK activity of the compound addition group with the CK activity without addition of the compound as 100%, and 1 μM of the compound was added for the measurement.

[2] = system: differentiated C2C12 muscle cell; assay: Sugar metabolism promoting activity in muscle cell (lactic acid production); assay type: cell-based, mouse; settings: C2C12 myotube, 1 μM compound, 2 days; lactic acid concentration without compound = 100%
Method: • (1) In the same manner as in Experimental Example 1, C2C12 cell was cultured in a growth medium. When the cells reached subconfluence, the medium was exchanged with a differentiation medium, and the cells were cultured for 3 to 4 days while exchanging the medium every 2 or 3 days until the cells differentiated to form a myotube. • (2) After confirmation of myotube formation under a microscope, the compound (1 μM) was added to a differentiation medium and cultured for 2 days. The cells were washed with Krebs-Ringer HEPES phosphate buffer (10 mM HEPES, pH 7.4, 131 mM NaCl, 4.7 mM KCl, 2.5 mM CaCl2-2H2O, 1.2 mM MgSO4-7H2O, 1.2 mM KH2PO4), the medium was exchanged with Krebs-Ringer HEPES phosphate buffer containing 5 mM glucose, 0.2% fatty acid-free bovine serum albumin, and the cells were cultured at 37° C. for 4 hr. • (3) The lactic acid concentration of the culture supernatant was measured using Detarminer LA kit (Kyowa Medex Co., Ltd.).
The numerical values in Table 4 show the lactic acid concentration of the compound addition group with the lactic acid concentration without addition of the compound as 100%.

[3] = Anti-obesity action in high-fat diet-loaded mouse; assay type: in vivo, male C57BL/6J mouse; settings: for plasma total cholesterol concentration (mg/dL) before administration: before administration (baseline); for plasma total cholesterol concentration (mg/dL) before administration / plasma total cholesterol concentration (mg/dL) after administration for 4 weeks / body weight: mean ± SD, n=6; for body weight: once a day for 4 weeks, administration completion day
Method: As male C57BL/6J mouse (CLEA Japan, Inc.), mice fed with a high-fat diet (45 kcal % fat, D12451, research diet) for 40 weeks from 5 weeks old were used. After acclimation bred for 3 weeks, the body weight, ingestion amount, body fat percentage, plasma triglyceride, insulin and leptin concentration were measured, and the mice were divided into 4 groups at 6 per group without difference between them. Plasma total cholesterol concentration was measured using Hitachi automatic analyzer 7180. The compound of Example 1 was suspended in aqueous methylcellulose solution, and the suspension was orally administered repeatedly to 3 groups of the […] divided into 4 groups at 3 mg/kg, 10 mg/kg or 30 mg/kg once a day for 4 weeks. A 0.5% aqueous methylcellulose solution was orally administered similarly to the remaining one group, and the group was used as a control group. On the administration completion day, the body weight and plasma total cholesterol concentration were measured. The numerical values in Table 5 show mean±standard deviation at n=6 (n is the number of mice).

[4] = system: NF-kB; assay: NF-kB activation suppressive action in muscle cell (luciferase reporter, TNF-α induced); assay type: cell-based, mouse; settings: TNF-α 10 ng/mL, activity without TNF-α = 1, n=8
Method: • (1) C2C12 cells introduced with NF-kB reporter plasmid (C2C12/NF-kB-luc, Panomics) was plated at 20000 cells/cm^2, 100 μg/ml hygromycin was added thereto, and the cells were cultured in a growth medium in the same manner as in Example 1. • (2) The cells were cultured in a differentiation medium containing the compound of Example 1, Example 8, Example 9, Example 10 or Example 11 for 1 hr, TNF-α was added thereto such that the concentration is 10 ng/mL, and the cells were cultured for 4 hr. • (3) The luciferase activity in the medium was measured using a Stedy-Glo luciferase assay system (Promega). The NF-kB activity was evaluated by measuring the luciferase activity.
The data in Table 6 to Table 10 show mean±standard deviation at n=8 (n is the number of samples).

[5] = Anti-diabetes action in KKA^y mouse (glycohemoglobin); assay type: in vivo, female KKA^y mouse; settings: 0.01% mixed with feed, 2 weeks; variation from value before administration; n=6
Method: Female KKA^y mice (12-13 week-old, CLEA Japan, Inc.) were bred allowing free ingestion of both feed and water. The mice were acclimation bred with powder CE-2 (CLEA Japan, Inc.) from 2 weeks before administration of the test compound. The body weight, blood glycohemoglobin % (GHb %) value, plasma glucose, triglyceride and total cholesterol concentration were measured, and the mice were divided into 3 groups or 5 groups (6 mice/group) such that those measurement values are uniform at the start of the administration. The compound was administered by mixing (0.01-0.03%) in the feed for 2 weeks. GHb % was measured on the last day. GHb % was measured using Tosoh Corporation automatic glycohemoglobin analyzer (HLC-723GHbV Alc2.2). The numerical values in Table 11 show the variation from the value before administration to the measured value after administration in mean±standard deviation at n=6 (n is the number of mice).

[6] = system: 3T3-L1 cells; assay: Adipocyte differentiation suppressive action (fat droplet quantification); assay type: cell-based
Method: 3T3-L1 cells (ATCC) were cultured in a growth medium until confluence. 1 μM dexamethasone, 0.5 mM 3-isobutyl-1-methylxanthine and 5 μg/mL insulin were added to the medium, and the cells were cultured for 3 days. The medium was exchanged with a growth medium containing 4 μg/mL insulin and the cells were cultured for 3 more days. When the compound (1 μM) was to be added, it was added after the cells reached confluence, and the cells were cultured for 6 days. After completion of the culture period, the fat droplet formed was quantified using Adipogenesis Assay Kit (CHEMICON). The numerical values in Table 12 show the relative value when without addition of the compound as 100% (n is the number of samples).

SMILES: O=C(/C=C/c1cnccc1-c1ccc(F)cc1)Nc1ccc(CCc2nnco2)cc1 [Example 1, (2E)-3-[4-(4-fluorophenyl)pyridin-3-yl]-N-{4-[2-(1,3,4-oxadiazol-2-yl)ethyl]phenyl}prop-2-enamide]
- activity at 1 µM [1]: 196%
- lactic acid production promoting action (%) [2]: 226.1%
- plasma total cholesterol concentration (mg/dL) before administration ([3]; 3 mg/kg/day group): 265.5 ± 29.7 mg/dL
- plasma total cholesterol concentration (mg/dL) after administration for 4 weeks ([3]; 3 mg/kg/day oral): 225.9 ± 27.7 mg/dL
- body weight ([3]; 3 mg/kg/day oral): 52.5 ± 2.5 g
- plasma total cholesterol concentration (mg/dL) before administration ([3]; 10 mg/kg/day group): 270.9 ± 24.5 mg/dL
- plasma total cholesterol concentration (mg/dL) after administration for 4 weeks ([3]; 10 mg/kg/day oral): 192.8 ± 27.6 mg/dL
- body weight ([3]; 10 mg/kg/day oral): 49.0 ± 3.2 g
- plasma total cholesterol concentration (mg/dL) before administration ([3]; 30 mg/kg/day group): 275.9 ± 18.2 mg/dL
- plasma total cholesterol concentration (mg/dL) after administration for 4 weeks ([3]; 30 mg/kg/day oral): 161.7 ± 16.9 mg/dL
- body weight ([3]; 30 mg/kg/day oral): 44.9 ± 3.1 g
- body weight decreasing action ([3]; administration at 10 mg/kg or above, result in words): showed a body weight decreasing action
- plasma total cholesterol concentration, result in words ([3]; high-fat diet-loaded mouse, 4 weeks oral): decreased total cholesterol concentration
- NF-κB activity (multiple) ([4]; 0.001 μM compound): 13.2 multiple
- NF-κB activity (multiple) ([4]; 0.003 μM compound): 13.4 multiple
- NF-κB activity (multiple) ([4]; 0.01 μM compound): 13.7 multiple
- NF-κB activity (multiple) ([4]; 0.03 μM compound): 12.5 multiple
- NF-κB activity (multiple) ([4]; 0.1 μM compound): 10.7 multiple
- NF-κB activity (multiple) ([4]; 0.3 μM compound): 9.4 multiple
- NF-κB activity (multiple) ([4]; 1 μM compound): 9.3 multiple
- NF-κB activity (multiple) ([4]; 3 μM compound): 8.3 multiple
- NF-κB activity (multiple) ([4]; 10 μM compound): 9.0 multiple
- GHb change (%) [5]: −0.4%
- lipid accumulation amount in the cell in fat differentiation, result in words ([6]; 1 μM): decrease the lipid accumulation amount in the cell
- lipid accumulation (%) ([6]; 1 μM compound, 6 days, without compound = 100%, n=2): 53%
